In patent US20140137294A1, “GLUCOSINOLATE TRANSPORTER PROTEIN AND USES THEREOF” (UNIVERSITY OF COPENHAGEN, priority 2010, published 2014):
Residue numbers refer to the chain shown, from its start. Numbers in names are those of the source.

Key:
Type in all cases: cell-based
AtGTR2 [1] = biological target: T1, AtGTR2 (Arabidopsis thaliana, UniProt Q9LV10); test: Glucosinolate uptake by AtGTR2 expressing oocytes, LC-MS analysis of oocyte extracts; conditions: data not shown
T1 construct: expressed in transfected cells; host or cells: Xenopus oocytes injected with in vitro transcribed cRNA (vector pNB1u)
T1 sequence (Q9LV10 1-616): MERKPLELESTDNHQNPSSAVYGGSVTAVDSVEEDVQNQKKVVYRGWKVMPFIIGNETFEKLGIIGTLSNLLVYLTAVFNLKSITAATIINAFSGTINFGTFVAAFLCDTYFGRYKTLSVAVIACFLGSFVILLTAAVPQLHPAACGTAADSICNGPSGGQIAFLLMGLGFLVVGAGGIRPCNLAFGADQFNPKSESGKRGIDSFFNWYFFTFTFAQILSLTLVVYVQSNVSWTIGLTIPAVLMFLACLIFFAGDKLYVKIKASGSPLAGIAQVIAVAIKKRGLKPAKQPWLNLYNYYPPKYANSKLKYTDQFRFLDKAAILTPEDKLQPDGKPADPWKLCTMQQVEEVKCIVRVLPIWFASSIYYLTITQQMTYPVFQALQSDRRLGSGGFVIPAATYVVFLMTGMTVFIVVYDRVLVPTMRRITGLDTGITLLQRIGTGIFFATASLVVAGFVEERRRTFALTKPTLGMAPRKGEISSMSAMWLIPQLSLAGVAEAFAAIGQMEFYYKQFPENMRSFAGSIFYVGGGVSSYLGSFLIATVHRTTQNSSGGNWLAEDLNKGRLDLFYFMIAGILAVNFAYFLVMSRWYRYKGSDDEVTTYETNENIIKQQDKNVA

AtGTR1 [2] = biological target: T2, AtGTR1 (Arabidopsis thaliana, UniProt Q944G5); test: Substrate-induced currents in voltage-clamped Xenopus oocytes expressing AtGTR1; conditions: AtGTR1
T2 construct: A library of Arabidopsis transporters available as full length cDNAs from the RIKEN bioresource center; expressed in transfected cells; host or cells: Xenopus oocytes injected with in vitro transcribed cRNA
T2 sequence (Q944G5 31-636 limits assumed): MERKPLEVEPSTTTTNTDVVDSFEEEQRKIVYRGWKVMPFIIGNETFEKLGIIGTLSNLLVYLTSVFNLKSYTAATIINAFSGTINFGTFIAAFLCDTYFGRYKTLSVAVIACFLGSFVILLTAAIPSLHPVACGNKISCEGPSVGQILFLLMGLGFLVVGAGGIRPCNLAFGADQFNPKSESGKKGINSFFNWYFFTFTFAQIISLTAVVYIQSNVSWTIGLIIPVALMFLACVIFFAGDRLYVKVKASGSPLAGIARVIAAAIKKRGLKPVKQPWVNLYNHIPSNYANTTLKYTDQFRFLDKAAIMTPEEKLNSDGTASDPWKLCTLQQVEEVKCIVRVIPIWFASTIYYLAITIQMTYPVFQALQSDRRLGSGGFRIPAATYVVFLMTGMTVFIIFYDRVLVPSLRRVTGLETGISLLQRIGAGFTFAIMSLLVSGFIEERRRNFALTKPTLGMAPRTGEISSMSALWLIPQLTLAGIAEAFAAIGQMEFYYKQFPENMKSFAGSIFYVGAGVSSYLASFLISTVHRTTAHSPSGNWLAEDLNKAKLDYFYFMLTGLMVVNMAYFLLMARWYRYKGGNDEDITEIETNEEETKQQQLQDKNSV

AtGTR2 [3] = biological target: T1, AtGTR2; test: Uptake of C14-labeled pOHBG in AtGTR2 expressing oocytes in presence of excess competitor; conditions: 50× excess unlabeled competitor, AtGTR2, pH 5
Protocol: (§1) FIG. 3: Biochemical analysis of AtGTR1 and 2 mediated GSL transport in Xenopus oocytes. A and B, pH dependence of AtGTR-mediated GSL transport. A, AtGTR2 mediated 4-MTB uptake measured by LC-MS analysis of oocyte extracts, n=3 oocytes. B, AtGTR1 currents induced by 1 mM 4-MTB were measured at different membrane potentials at pH 5 ([…]), pH 6 (♦), and pH 7 (▴). Currents were normalized to the current induced at pH 5 at −60 mV, error bars are SD, n=4 oocytes. C and D, kinetic analysis of AtGTR-mediated glucosinolate transport. […]
(§2) The substrate specificity investigations were extended to include substrates previously identified for the NRT/PTR transporter family namely di- and tripeptides and nitrate. […] However, perfusing with 1 mM NO3^− did result in currents but these amounted only to 1/10th of currents measured when perfusing with 100 μM 4-MTB (FIG. 3F). […]
(§3) For assays with radiolabeled substrates, single oocytes were ruptured in 100 μl 10% SDS in 4 ml scintillation vials by shaking for 20-30 minutes. 2.5 ml EcoScint™ scintillation fluid (National Diagnostics) was added, and imported compounds quantified by scintillation counting. For assays with unlabeled substrates, oocyte extracts were analysed by LC-MS. Oocytes were analyzed in batches of 5 oocytes per repetition. […]

AtGTR1 [4] = biological target: T2, AtGTR1; test: Uptake of C14-labeled pOHBG in AtGTR1 expressing oocytes in presence of excess competitor; conditions: 50× excess unlabeled competitor, AtGTR1, pH 5
Protocol: as §1, §2, §3

Xenopus oocytes [5] = test: 4-MTB uptake in Xenopus oocytes expressing Arabidopsis GTR and other NRT/PTR proteins (LC-MS); conditions: pH 5, 1 mM 4-MTB
Xenopus oocytes [6] = test: 4-MTB import by phosphorylation/dephosphorylation mimicking GTR1 and GTR2 constructs in oocytes (LC-MS); conditions: 100 μM 4-MTB, Kulori pH 5, one hour

For `C[S+]([O-])CCCC/C(=N/OS(=O)(=O)O)S[C@@H]1O[C@H](CO)[C@@H](O)[C@H](O)[C@H]1O` (stereo partly drawn), the “uptake by AtGTR2 measured by LC-MS analysis of oocyte extracts” value (AtGTR2 [1]) was “took up” and the inward current (AtGTR1 [2]; 100 μM substrate, pH 5, voltage clamped at −50 mV) was ~10 nA.

With `O=[N+]([O-])O` [NO3^−, nitrate] the “effect on uptake of 40 μM C14-labeled pOHBG” value (AtGTR2 [3]) was “did not have significant inhibitory effects”, the “effect on uptake of 40 μM C14-labeled pOHBG” value (AtGTR1 [4]) was “did not have significant inhibitory effects” and the “currents as fraction of currents with 100 μM 4-MTB” value (AtGTR1 [2]; 1 mM NO3−) was 1/10.

For `O=S(=O)(O)O/N=C(\Cc1ccc(O)cc1)S[C@@H]1O[C@H](CO)[C@@H](O)[C@H](O)[C@H]1O` [pOHBG, p-hydroxybenzyl-GSL], the “uptake by AtGTR2 measured by LC-MS analysis of oocyte extracts” value (AtGTR2 [1]) was “took up”.

B1: AtGTR4: Arabidopsis GTR protein, SEQ ID NO: 8 (protein, listed as Arabidopsis thaliana)
chain: MDNEKGTSSSDLTTRQRKPLGWKAMPYIIGNETLERLATFGLMANFMVYMVREYHMDQVQAVTLINTWSALTNFAPIIGAFISDSYTGKFNTIVFGSIAELLGMLVLTFTSLVPNLRPPPCTADQITGQCIPYSYSQLYVLLSGLFLLSVGTGGIRSCSVPFSLDQFDDSTEEGREGSRSFFSWYYTTHTIVQLVSMTLVLYVQNNISWGIGFAIPTVLNFFALLLLFVGTRYYVFVKPEGSVFSGVFKVLVAAYKKRKARFTSGIDYHQPLLETDLQSNKLVLTDQFRFLNKAVIVMNNDEAGNEEWRTCTVRQIEDIKSIISIIPIFASSIIGFLAMNQQQTFTVSQALKMDLQFPGTSYLIPPASITVISLLNIGIWLPFYETVLVRHIENITKQNGGISLLQKVGIGNIFSISTMLISGIVERKRRDLSLNGVKMSVFWLTPQQVLMGFYQVFTIVGLTEFFNKQVPINMRSIGNSLLYLGLSLASYLSSAMVSIVHSVTARGGQSWLTDDIDKSKLDCFYYFIAALSTLNFIFFFWCARRYRYRNYSNEQ
With B1 the “4-MTB uptake activity compared to AtGTR1” value (Xenopus oocytes [5]) was 10%.

B2: GTR2 T117D: GTR2 of SEQ ID No: 4 with T at position 117 for D (protein, listed as Arabidopsis thaliana)
chain: T1 sequence (Q9LV10 1-616) with T117D
For B2, the 4-MTB transport activity (Xenopus oocytes [6]) was “block the transport activity”.

B3: AtGTR5: Arabidopsis GTR protein, SEQ ID NO: 10 (protein, listed as Arabidopsis thaliana)
chain: MVLEDRKDGSSLPGRSGSFSKSSPSELDVVDPYKRISSPGSILDAEKVEKKPGGWRAVSFILGNETLERLGSIGLLANFMVYLTKVFHLEQVDAANVINIWSGFTNLTPLVGAYISDTYVGRFKTIAFASFATLLGLITITLTASFPQLHPASCNSQDPLSCGGPNKLQIGVLLLGLCFLSVGSGGIRPCSIPFGVDQFDQRTEEGVKGVASFFNWYYMTFTVVLIITQTVVVYIQDQVSWIIGFSIPTGLMALAVVMFFAGMKRYVYVKPEGSIFSGIAQVIVAARKKRKLKLPAEDDGTVTYYDPAIKSSVLSKLHRSNQFRCLDKAAVVIEGDLTPEGPPADKWRLCSVQEVEEVKCLIRIVPIWSAGIISLAAMTTQGTFTVSQALKMDRNLGPKFEIPAGSLSVISLLTIGIFLPFYDRVFVPFMRRITGHKSGITLLQRIGTGIVFAIFSMIVAGIVERMRRIRSINAGDPTGMTPMSVFWLSPQLILMGLCEAFNIIGQIEFFNSQFPEHMRSIANSLFSLSFAGSSYLSSFLVTVVHKFSGGHDRPDWLNKNLNAGKLDYFYYLIAVLGVVNLVYFWYCARGYRYKVGLPIEDFEEDKSSDDVEMTSKKSMK
B3 was tested, and the “4-MTB uptake activity compared to AtGTR1” value (Xenopus oocytes [5]) was 10%.
